# Assay results published in ChEMBL document CHEMBL3407467, “Recent advances in the chemistry and biology of pyridopyrimidines” (Eur J Med Chem, 2015).
# How the values were obtained:
# [1] = Inhibition of Pneumocystis jirovecii DHFR
# [2] = Inhibition of Pneumocystis carinii DHFR K37Q/F69N mutant by spectrophotometric assay
# [3] = Inhibition of recombinant Pneumocystis jirovecii DHFR expressed in Escherichia coli Rosetta Gami B (DE3) by spectrophotometric assay
# Dihydrofolate reductase [4] = molecular target: T1, Dihydrofolate reductase (Pneumocystis carinii, UniProt P16184); assay: Inhibition of recombinant Pneumocystis carinii DHFR expressed in Escherichia coli Rosetta Gami B (DE3) by spectrophotometric assay
# T1 sequence (P16184 whole entry): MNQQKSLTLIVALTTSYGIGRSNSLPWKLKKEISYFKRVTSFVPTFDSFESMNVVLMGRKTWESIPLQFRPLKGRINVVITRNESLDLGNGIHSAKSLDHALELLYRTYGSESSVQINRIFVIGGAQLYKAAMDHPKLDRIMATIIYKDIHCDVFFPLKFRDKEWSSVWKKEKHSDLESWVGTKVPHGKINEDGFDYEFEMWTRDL
# [5] = Inhibition of human DHFR mutant by spectrophotometric assay
# Dihydrofolate reductase [6] = molecular target: Dihydrofolate reductase (Pneumocystis carinii, UniProt P16184, K37Q); assay: Inhibition of Pneumocystis carinii DHFR K37Q mutant by spectrophotometric assay
# Dihydrofolate reductase [7] = molecular target: T2, Dihydrofolate reductase (Homo sapiens, UniProt P00374); assay: Inhibition of recombinant human DHFR expressed in Escherichia coli Rosetta Gami B (DE3) by spectrophotometric assay
# T2 sequence (P00374 whole entry): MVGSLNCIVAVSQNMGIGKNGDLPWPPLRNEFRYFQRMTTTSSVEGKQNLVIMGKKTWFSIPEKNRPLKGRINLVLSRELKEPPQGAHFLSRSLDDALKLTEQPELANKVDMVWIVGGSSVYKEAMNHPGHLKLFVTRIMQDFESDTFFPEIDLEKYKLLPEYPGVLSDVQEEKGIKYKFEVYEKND
# [8] = molecular target: Receptor tyrosine-protein kinase erbB-2 (Homo sapiens, UniProt P04626); assay: Inhibition of ErbB-2 intracellular domain (unknown origin) purified from a baculovirus expression system using Biotin-(amino hexonoic acid)-EEEEYFELVAKKK-CONH2 as substrate after 10 mins by scintillation counting in presence of [gamma-33P]ATP
# Adenosine kinase = Adenosine kinase (Homo sapiens, UniProt P55263); assay: Inhibition of adenosine kinase (unknown origin)
# Sequence of Adenosine kinase (P55263 whole entry): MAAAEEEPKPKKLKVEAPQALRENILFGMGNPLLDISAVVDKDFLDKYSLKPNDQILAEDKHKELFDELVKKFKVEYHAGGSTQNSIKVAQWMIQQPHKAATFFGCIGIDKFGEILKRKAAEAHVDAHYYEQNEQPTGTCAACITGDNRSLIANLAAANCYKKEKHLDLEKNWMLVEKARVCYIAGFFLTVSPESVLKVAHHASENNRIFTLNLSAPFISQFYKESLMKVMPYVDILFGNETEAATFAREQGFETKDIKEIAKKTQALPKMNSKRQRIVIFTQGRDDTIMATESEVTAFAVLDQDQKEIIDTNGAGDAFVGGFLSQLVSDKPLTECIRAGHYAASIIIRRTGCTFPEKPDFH
# Sequence of Receptor tyrosine-protein kinase erbB-2 (P04626 whole entry, the tested form may be a part): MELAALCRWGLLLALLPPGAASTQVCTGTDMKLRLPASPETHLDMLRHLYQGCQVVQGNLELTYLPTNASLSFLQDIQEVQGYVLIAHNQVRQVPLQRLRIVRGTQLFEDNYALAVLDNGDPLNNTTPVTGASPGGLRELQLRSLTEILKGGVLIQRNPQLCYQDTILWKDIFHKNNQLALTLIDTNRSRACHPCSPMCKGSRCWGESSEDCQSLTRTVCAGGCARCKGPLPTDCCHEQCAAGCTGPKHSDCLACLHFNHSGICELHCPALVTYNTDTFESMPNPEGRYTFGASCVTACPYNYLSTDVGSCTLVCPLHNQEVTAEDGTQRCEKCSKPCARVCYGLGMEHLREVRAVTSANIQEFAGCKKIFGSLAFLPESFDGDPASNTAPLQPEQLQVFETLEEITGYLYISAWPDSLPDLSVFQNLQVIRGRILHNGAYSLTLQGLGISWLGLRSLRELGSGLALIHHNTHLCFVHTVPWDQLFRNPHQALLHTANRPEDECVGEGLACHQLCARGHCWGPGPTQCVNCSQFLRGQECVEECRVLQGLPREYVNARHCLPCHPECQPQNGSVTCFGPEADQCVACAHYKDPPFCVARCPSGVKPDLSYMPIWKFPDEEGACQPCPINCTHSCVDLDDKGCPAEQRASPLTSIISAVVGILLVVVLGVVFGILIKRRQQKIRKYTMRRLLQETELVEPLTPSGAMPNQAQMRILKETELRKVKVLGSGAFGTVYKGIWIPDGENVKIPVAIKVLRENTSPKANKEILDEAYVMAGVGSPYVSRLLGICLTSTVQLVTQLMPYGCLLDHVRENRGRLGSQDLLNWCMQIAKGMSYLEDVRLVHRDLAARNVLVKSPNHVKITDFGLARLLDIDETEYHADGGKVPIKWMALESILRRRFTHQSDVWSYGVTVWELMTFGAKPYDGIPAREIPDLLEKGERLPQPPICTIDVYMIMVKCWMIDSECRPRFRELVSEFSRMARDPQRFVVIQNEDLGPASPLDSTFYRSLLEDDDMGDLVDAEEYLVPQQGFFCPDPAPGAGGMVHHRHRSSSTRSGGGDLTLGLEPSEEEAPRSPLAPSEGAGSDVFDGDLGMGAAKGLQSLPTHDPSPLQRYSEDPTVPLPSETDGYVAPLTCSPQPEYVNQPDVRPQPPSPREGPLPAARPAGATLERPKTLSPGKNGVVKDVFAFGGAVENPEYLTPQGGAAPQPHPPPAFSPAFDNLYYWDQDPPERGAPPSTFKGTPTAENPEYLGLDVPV
# Sequence of Dihydrofolate reductase (Pneumocystis carinii, UniProt P16184, K37Q) (P16184 whole entry K37Q): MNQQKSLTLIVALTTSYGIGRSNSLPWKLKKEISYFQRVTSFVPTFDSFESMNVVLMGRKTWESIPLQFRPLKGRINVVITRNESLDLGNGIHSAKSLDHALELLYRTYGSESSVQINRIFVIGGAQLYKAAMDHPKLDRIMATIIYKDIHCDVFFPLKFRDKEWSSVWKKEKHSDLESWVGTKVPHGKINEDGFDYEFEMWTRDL
structure (smiles),measurement,setting,value
CN(c1cc(F)c(F)c(F)c1)c1cnc2nc(N)nc(N)c2c1,IC50,[1],4.2 nM
Nc1nc(N)c2cc(CNc3cc(Cl)ccc3Cl)cnc2n1,Ki,[2],0.71 nM
same,Ki,[3],2.7 nM
same,Ki,Dihydrofolate reductase [4],6.3 nM
same,Ki,[5],0.58 nM
same,Ki,Dihydrofolate reductase [6],0.26 nM
same,Ki,Dihydrofolate reductase [7],24.4 nM
CN(CCO)c1cc2c(Nc3ccc4c(cnn4Cc4ccccc4)c3)ncnc2cn1,IC50,[8],30 nM
Nc1ncnc2nc(-c3ccc(N4CCOCC4)nc3)cc(-c3cccc(Br)c3)c12,IC50,Adenosine kinase,2 nM
CS(=O)(=O)CCNCc1ccc(-c2cc3c(Nc4ccc(OCc5ccccc5)cc4)ncnc3cn2)o1,IC50,[8],26 nM
[O-][S+]1CCN(Cc2ccc(-c3cc4c(Nc5ccc(OCc6cccc(F)c6)cc5)ncnc4cn3)o2)CC1,IC50,[8],21 nM
CN(C)c1cc2c(Nc3ccc4c(cnn4Cc4ccccc4)c3)ncnc2cn1 [GW282974X],IC50,[8],16 nM
